Results: patent US20190177286A1, “CRYSTAL MODIFICATIONS OF ELOBIXIBAT” (Elobix AB, priority 2014, published 2019)
Each block holds one compound with its values, some of them ahead of it.

Assay: Dynamic Vapor Sorption (DVS), two sorption-desorption cycles 0-95-0% RH
Format: physicochemical
Conditions: for phase change from anhydrate to dihydrate, significant change in moisture (sorption curves): DVS sorption cycles
Procedure: Approximately 2-16 mg of the sample was weighed into a metal receptacle, which was then released of static electricity. The metal receptacle was positioned in a Surface Measurements System Ltd DVS Advantage instrument. The sample was subjected to two consecutive sorption-desorption cycles, each running from 0-95-0% relative humidity (% RH). One cycle consisted of 21 steps, those between 0-90% RH were taken in 10% RH each. At each stage the following equilibrium criteria was used: dm/dt over 5 minutes <0,002% and the minimum and maximum time at each stage were 10 and 360 min respectively.

phase change from anhydrate to dihydrate, significant change in moisture (sorption curves) (listed as C): 60-70 % RH
Compound: CCCCC1(CCCC)CN(c2ccccc2)c2cc(SC)c(OCC(=O)N[C@@H](C(=O)NCC(=O)O)c3ccccc3)cc2S(=O)(=O)C1 [crystal modification C, N-{(2R)-2-[({[3,3-dibutyl-7-(methylthio)-1,1-dioxido-5-phenyl-2,3,4,5-tetrahydro-1,5-benzothiazepin-8-yl]oxy}acetyl)amino]-2-phenylethanolyl}-glycine]

moisture uptake (DVS isotherm) (weight % water versus % RH, two consecutive DVS cycles, FIG. 10): linear function of % RH
Compound: CCCCC1(CCCC)CN(c2ccccc2)c2cc(SC)c(OCC(=O)N[C@@H](C(=O)NCC(=O)O)c3ccccc3)cc2S(=O)(=O)C1 [crystal modification F, N-{(2R)-2-[({[3,3-dibutyl-7-(methylthio)-1,1-dioxido-5-phenyl-2,3,4,5-tetrahydro-1,5-benzothiazepin-8-yl]oxy}acetyl)amino]-2-phenylethanolyl}-glycine]

phase change from anhydrate to dihydrate, significant change in moisture (sorption curves) (listed as L): 40-50 % RH
Compound: CCCCC1(CCCC)CN(c2ccccc2)c2cc(SC)c(OCC(=O)N[C@@H](C(=O)NCC(=O)O)c3ccccc3)cc2S(=O)(=O)C1 [crystal modification L, N-{(2R)-2-[({[3,3-dibutyl-7-(methylthio)-1,1-dioxido-5-phenyl-2,3,4,5-tetrahydro-1,5-benzothiazepin-8-yl]oxy}acetyl)amino]-2-phenylethanolyl}-glycine]

Compound: CCCCC1(CCCC)CN(c2ccccc2)c2cc(SC)c(OCC(=O)N[C@@H](C(=O)NCC(=O)O)c3ccccc3)cc2S(=O)(=O)C1 [crystal modification N, N-{(2R)-2-[({[3,3-dibutyl-7-(methylthio)-1,1-dioxido-5-phenyl-2,3,4,5-tetrahydro-1,5-benzothiazepin-8-yl]oxy}acetyl)amino]-2-phenylethanolyl}-glycine]
moisture amount where the four DVS curves coincide (dihydrate) (DVS, sorption and desorption curves of two cycles): around 5 % w/w
